40 compounds from US12441710B2, “Substituted piperidino compounds and related methods of treatment” (Alkermes, Inc., priority 2020, dated 2025) can be followed below.

Molecules are shown by their SMILES. pEC50: −log10 of the molar value.

The target of one series is T1, human orexin-2 receptor (OX2R) (Homo sapiens, UniProt O43614).
T1 construct: expressed in transfected cells
T1 sequence (O43614 1-444): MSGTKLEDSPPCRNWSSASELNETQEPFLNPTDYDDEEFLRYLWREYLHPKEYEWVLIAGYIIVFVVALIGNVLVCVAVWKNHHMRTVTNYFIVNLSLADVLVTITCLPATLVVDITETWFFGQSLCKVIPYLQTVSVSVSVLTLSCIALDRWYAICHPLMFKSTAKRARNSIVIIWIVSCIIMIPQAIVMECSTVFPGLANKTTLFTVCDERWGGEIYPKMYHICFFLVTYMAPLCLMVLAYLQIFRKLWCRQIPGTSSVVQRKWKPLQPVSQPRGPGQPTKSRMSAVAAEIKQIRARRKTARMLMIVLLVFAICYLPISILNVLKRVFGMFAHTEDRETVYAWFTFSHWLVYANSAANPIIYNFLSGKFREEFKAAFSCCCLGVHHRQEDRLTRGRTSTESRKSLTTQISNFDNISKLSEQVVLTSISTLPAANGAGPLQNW
Put plainly: Human OX2R IP1 assay. The series is classed as cell-based. Conditions: T-Rex CHO cells stably overexpressing human OX2R; IP1 accumulation, 1 hr at 37 degrees C. How it is done:
T-Rex CHO cells stably overexpressing the human orexin-2 receptor (OX2R) were induced overnight with 1 μg/mL of doxycycline in a T225 flask. 24 hours post induction, cells were lifted with accutase and plated into a 384-well proxy plate at 30,000 cells/well. Cells were then treated with different test compounds in 1× stimulation buffer containing 10 mM Hepes, 1 mM CaCl2), 0.5 mM MgCl2, 4.2 mM KCl, 146 mM NaCl, 5.5 mM glucose, and 50 mM LiCl, pH 7.4, for 1 hr at 37 degrees C. Following incubation, the reaction was terminated by the addition of detection mix, which is composed of IP1-d2 and anti-IP1-cryptate diluted in lysis buffer as well as 1× stimulation buffer. The plates were allowed to incubate for 1 hour at room temperature and were then read in the EnVision® multimode plate reader, measuring inositol phosphate levels.
Cisbio IP1 is a cell-based functional assay quantifying the accumulation of inositol monophosphate (IP), a metabolite released as a result of orexin 2 receptor activation through the phospholipase C-Gq signaling pathway. This is a competitive immunoassay in which the IP1 produced by the cells upon receptor activation competes with the IP1 analog coupled to the d2 fluorophore (acceptor) for binding to an anti-IP1 monoclonal antibody labeled with Eu cryptate (donor). The measured HTRF-FRET based signal is inversely proportional to the IP1 concentration produced.
The EC50 values reported in Table 2 were obtained according to the human OX2R IP1 assay described above. Data are the mean EC50 values±S.E.M. The compound methyl (2R,3S)-3-((methylsulfonyl)amino)-2-(((cis-4-phenylcyclohexyl)oxy)methyl)-piperidine-1-carboxylate (sometimes referred to herein as Reference Compound A) is a reference compound which is disclosed in Example 5 of PCT publication no. WO2017/135306.
Take `CS(=O)(=O)N[C@H]1CCN(c2ccccn2)C[C@H]1CO[C@H]1CC[C@@H](c2ccccn2)CC1` [Compound 2]: the pEC50 (in general, the EC50 on a negative log10 scale, so that one unit is a factor of ten) was greater than 7.00.

In turn, `CS(=O)(=O)N[C@H]1CCN(c2ccccn2)C[C@H]1CO[C@H]1CC[C@@H](c2cccnc2)CC1` [Compound 3] gave a pEC50 greater than 7.00.

`CS(=O)(=O)N[C@H]1CCN(c2ccccn2)C[C@H]1CO[C@H]1CC[C@@H](c2ccncc2)CC1` [Compound 4] had a pEC50 greater than 7.00.

Compound `CS(=O)(=O)N[C@H]1CCN(c2ccccn2)C[C@H]1CO[C@H]1CC[C@@H](c2ccccc2F)CC1` [Compound 5] had a pEC50 greater than 7.00.

`CS(=O)(=O)N[C@H]1CCN(c2ccccn2)C[C@H]1CO[C@H]1CC[C@@H](c2ccc(F)cc2)CC1` [Compound 7] gave a pEC50 greater than 7.00.

On to `CS(=O)(=O)N[C@H]1CCN(c2ccccn2)C[C@H]1CO[C@H]1CC[C@@H](c2ccncn2)CC1` [Compound 8], for which the pEC50 is less than 6.00.

Turning to `CS(=O)(=O)N[C@H]1CCN(c2ccccn2)C[C@H]1CO[C@H]1CC[C@@H](c2cnccn2)CC1` [Compound 9], the pEC50 was less than 6.00.

In turn, `CS(=O)(=O)N[C@H]1CCN(c2ccccn2)C[C@H]1CO[C@H]1CC[C@@H](c2ccccc2)CC1` [Compound 10] had a pEC50 greater than 7.00.

Compound `CS(=O)(=O)N[C@H]1CCN(c2ccccn2)C[C@H]1CO[C@H]1CC[C@@H](c2ncccn2)CC1` [Compound 11] had a pEC50 of less than 6.00.

On to `CS(=O)(=O)N[C@H]1CCN(c2ccccn2)C[C@H]1CO[C@H]1CC[C@@H](c2cncnc2)CC1` [Compound 12], for which the pEC50 is less than 6.00.

Take `CS(=O)(=O)N[C@H]1CCN(c2ccccn2)C[C@H]1CO[C@H]1CC[C@@H](c2ccnnc2)CC1` [Compound 13]: the pEC50 was less than 6.00.

`CS(=O)(=O)N[C@H]1CCN(c2ccccn2)C[C@H]1CO[C@H]1CC[C@@H](c2cccnn2)CC1` [Compound 14] showed a pEC50 of less than 6.00.

In turn, `Cc1ccccc1[C@H]1CC[C@@H](OC[C@@H]2CN(c3ccccn3)CC[C@@H]2NS(C)(=O)=O)CC1` [Compound 15] gave a pEC50 greater than 7.00.

Compound `Cc1cccc([C@H]2CC[C@@H](OC[C@@H]3CN(c4ccccn4)CC[C@@H]3NS(C)(=O)=O)CC2)c1` [Compound 16] showed a pEC50 greater than 7.00.

The compound `Cc1cccc([C@H]2CC[C@@H](OC[C@@H]3CN(c4ccccn4)CC[C@@H]3NS(C)(=O)=O)CC2)c1C` [Compound 17] showed a pEC50 greater than 7.00.

The compound `Cc1cc(C)cc([C@H]2CC[C@@H](OC[C@@H]3CN(c4ccccn4)CC[C@@H]3NS(C)(=O)=O)CC2)c1` [Compound 18] had a negative-log EC50 (pEC50) greater than 7.00.

`CS(=O)(=O)N[C@H]1CCN(c2ncccn2)C[C@H]1CO[C@H]1CC[C@@H](c2ccccc2)CC1` [Compound 19] had a pEC50 greater than 7.00.

Turning to `CS(=O)(=O)N[C@H]1CCN(c2ccncn2)C[C@H]1CO[C@H]1CC[C@@H](c2ccccc2)CC1` [Compound 20], the pEC50 is greater than 7.00.

`CS(=O)(=O)N[C@H]1CCN(c2cnccn2)C[C@H]1CO[C@H]1CC[C@@H](c2ccccc2)CC1` [Compound 21] gave a pEC50 greater than 7.00.

`CS(=O)(=O)N[C@H]1CCN(c2cccnn2)C[C@H]1CO[C@H]1CC[C@@H](c2ccccc2)CC1` [Compound 22]: the pEC50 is greater than 7.00.

`CS(=O)(=O)N[C@H]1CCN(c2cccc(F)n2)C[C@H]1CO[C@H]1CC[C@@H](c2ccccc2)CC1` [Compound 23] gave a pEC50 greater than 7.00.

For the compound `CS(=O)(=O)N[C@H]1CCN(c2ccc(F)cn2)C[C@H]1CO[C@H]1CC[C@@H](c2ccccc2)CC1` [Compound 24], the pEC50 is greater than 7.00.

With `CS(=O)(=O)N[C@H]1CCN(c2ncccc2F)C[C@H]1CO[C@H]1CC[C@@H](c2ccccc2)CC1` [Compound 26], the pEC50 is greater than 7.00.

Take `CS(=O)(=O)N[C@H]1CCN(c2ncccc2O)C[C@H]1CO[C@H]1CC[C@@H](c2ccccc2)CC1` [Compound 27]: the negative logarithm of the EC50 (pEC50) is greater than 7.00.

`CS(=O)(=O)N[C@H]1CCN(c2ncccc2C(F)(F)F)C[C@H]1CO[C@H]1CC[C@@H](c2ccccc2)CC1` [Compound 28] had a pEC50 greater than 7.00.

Compound `C[C@@]1(CO[C@H]2CC[C@@H](c3ccccc3)CC2)CN(c2ccccn2)CC[C@@H]1NS(C)(=O)=O` [Compound 29] gave a negative logarithm of the EC50 (pEC50) greater than 7.00.

For `CS(=O)(=O)N[C@H]1CCN(c2ccccn2)C[C@H]1CO[C@H]1CC[C@@H](c2ccccc2O)CC1` [Compound 30], the negative-log EC50 (pEC50) was 6.00 to 7.00.

`CS(=O)(=O)N[C@H]1CCN(c2ccccn2)C[C@H]1CO[C@H]1CC[C@@H](c2cccc(O)c2)CC1` [Compound 31] gave a pEC50 greater than 7.00.

For `CS(=O)(=O)N[C@H]1CCN(c2ccccn2)C[C@H]1CO[C@H]1CC[C@@H](c2ccc(O)cc2)CC1` [Compound 32], the pEC50 was greater than 7.00.

For `CS(=O)(=O)N[C@H]1CCN(c2ccccn2)C[C@H]1CO[C@H]1CC[C@@H](c2cccc(C(F)(F)F)c2)CC1` [Compound 33], the pEC50 was 6.00 to 7.00.

In turn, `CS(=O)(=O)N[C@H]1CCN(c2ccccn2)C[C@H]1CO[C@H]1CC[C@@H](c2cccc(C#N)c2)CC1` [Compound 35] showed a pEC50 greater than 7.00.

As for `CS(=O)(=O)N[C@H]1CCN(Cc2ccccc2)C[C@H]1CO[C@H]1CC[C@@H](c2ccccc2)CC1` [Compound 36], the pEC50 was less than 6.00.

As to `CS(=O)(=O)N[C@H]1CCN(Cc2ccccn2)C[C@H]1CO[C@H]1CC[C@@H](c2ccccc2)CC1` [Compound 39], the pEC50 was less than 6.00.

With `CS(=O)(=O)N[C@H]1CCN(Cc2cccnc2)C[C@H]1CO[C@H]1CC[C@@H](c2ccccc2)CC1` [Compound 40], the negative logarithm of the EC50 (pEC50) is less than 6.00.

In turn, `CS(=O)(=O)N[C@H]1CCN(Cc2ccncc2)C[C@H]1CO[C@H]1CC[C@@H](c2ccccc2)CC1` [Compound 41] gave a pEC50 of less than 6.00.

Turning to `CS(=O)(=O)N[C@H]1CCN(c2cccc3ccnn23)C[C@H]1CO[C@H]1CC[C@@H](c2ccccc2)CC1` [Compound 42], the pEC50 is less than 6.00.

The compound `CS(=O)(=O)N[C@H]1CCN(c2cccc3ncnn23)C[C@H]1CO[C@H]1CC[C@@H](c2ccccc2)CC1` [Compound 43] showed a pEC50 of less than 6.00.

As to `CS(=O)(=O)N[C@H]1CCN(c2nccc3ncnn23)C[C@H]1CO[C@H]1CC[C@@H](c2ccccc2)CC1` [Compound 44], the pEC50 was 6.00 to 7.00.

`CS(=O)(=O)N[C@H]1CCN(c2nccc3ocnc23)C[C@H]1CO[C@H]1CC[C@@H](c2ccccc2)CC1` [Compound 45] gave a pEC50 greater than 7.00.

Test system in the next series: not listed separately
Description: Hepatocytes stability assay (human hepatocytes). Format: in vitro ADME. As to conditions: both sexes, cryopreserved hepatocytes, 1 μM test compound, 1×10^6 cell/mL, read-out: CLint (μL/min/million cells). As to the method: (§1) In vitro metabolic stability was assessed using cryopreserved hepatocytes from male Sprague Dawley rats and a pool of 50 mixed gender humans (BioIVT, Baltimore, MD). The incubation mixtures were prepared by mixing 250 μL of pre-warmed KHB (Krebs-Henseleit buffer) containing 2×10^6 cell/mL of hepatocytes with 250 μL of pre-warmed KHB buffer containing 2 μM of test compounds in a 48-well plate, giving a final concentration of 1 μM test compound (0.1% DMSO) and 1×10^6 cell/mL of hepatocytes. The reaction mixture was incubated at 37 degrees C. A 50 μL aliquot of incubation mixture was taken at time points (0, 15, 30, 60, 120 and 240 minutes) and transferred into a 96-well plate containing 300 μL ice-cold acetonitrile (containing 30 ng/mL of labetalol and 10 ng/mL of Naltrexone-d3 as internal standards) and immediately placed in ice to terminate the reaction. Samples were centrifuged, and supernatants were transferred into 96-well plates for liquid chromatography with tandem mass spectrometry (LC-MS/MS) analysis to monitor the depletion of the test compound. Data was calculated as percent remaining by assuming zero-minute time point peak area ratio (analyte/IS) as 100% and dividing remaining time point peak area ratios by zero-minute time point peak area ratio. Data were fitted to a first-order decay model to determine half-life. From a plot of log (ln) peak area against time, the slope of the line was determined. Subsequently, half-life (T1/2) and intrinsic clearance (CLint) were calculated using the equations below: • Elimination rate constant (k)=(−slope) • Half-life (T1/2) min=0.693/k • Intrinsic Clearance (CLint) (mL/min/million cells)=(V×0.693)/T1/2 • V=incubation volume mL/number of cells The in vitro T1/2 was converted to in vitro intrinsic clearance (CLint,hep) in units of mL/min/kg using the formula shown below: The in vitro intrinsic clearance (CLint,hep) was scaled to in vivo hepatic clearance (CL,hep) using the following equation which was adapted from a well-stirred model. [formula] where Q is the liver blood flow and fu is the fraction unbound (assumed to be unity in this case). All parameters used in the calculation are shown below (Table 4). The extraction ratio (ER) was calculated by dividing the hepatic clearance of a compound to the liver blood flow. The data reported in Table 5 were obtained according to the human hepatocytes stability assay described above.
Regarding `CS(=O)(=O)N[C@H]1CCN(c2ccccn2)CC1COC1CCC(c2ccccn2)CC1` (some centres unmarked) [Compound 2], the hepatocyte CLint at 1 μM is 53 µL/min/1e6 cells.

For the next series, the system named is human hepatocytes. Description: Hepatocytes stability assay (human hepatocytes). Format: in vitro ADME. As to conditions: hepatic clearance divided by liver blood flow, fu assumed unity. As to the method:
as §1
Turning to `CS(=O)(=O)N[C@H]1CCN(c2ccccn2)CC1COC1CCC(c2ccccn2)CC1` (some centres unmarked) [Compound 2], the “Extraction Ratio (ER)” value stood at 0.89.
